ChEMBL document CHEMBL1129829, “Synthesis and biological activity of P2P4 azapeptidomimetic P1-argininal and P1-ketoargininamide derivatives: a novel class of serine protease inhibitors” (Bioorg Med Chem Lett, 1997)

How the values were obtained:
[1] = biological target: T1, Coagulation factor VII (Homo sapiens, UniProt P08709); assay: Compound was evaluated for its 50 percent inhibitory concentration against human Coagulation factor VII
T1 sequence (P08709 whole entry): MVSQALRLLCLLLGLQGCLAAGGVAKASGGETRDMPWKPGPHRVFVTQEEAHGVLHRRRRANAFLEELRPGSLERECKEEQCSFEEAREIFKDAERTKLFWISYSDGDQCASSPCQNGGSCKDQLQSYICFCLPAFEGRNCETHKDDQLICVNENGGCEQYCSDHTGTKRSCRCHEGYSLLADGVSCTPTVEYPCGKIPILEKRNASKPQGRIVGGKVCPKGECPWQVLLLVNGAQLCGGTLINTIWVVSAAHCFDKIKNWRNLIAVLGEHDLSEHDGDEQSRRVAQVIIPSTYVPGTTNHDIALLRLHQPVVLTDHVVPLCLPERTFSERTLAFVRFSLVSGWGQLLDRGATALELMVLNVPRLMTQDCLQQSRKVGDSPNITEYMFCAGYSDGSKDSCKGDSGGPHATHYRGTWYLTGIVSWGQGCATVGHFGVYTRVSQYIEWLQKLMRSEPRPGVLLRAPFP

[2] = biological target: T2, Coagulation factor X (Homo sapiens, UniProt P00742); assay: Compound was evaluated for its 50% inhibitory concentration against Coagulation factor X
T2 sequence (P00742 41-179 limits assumed): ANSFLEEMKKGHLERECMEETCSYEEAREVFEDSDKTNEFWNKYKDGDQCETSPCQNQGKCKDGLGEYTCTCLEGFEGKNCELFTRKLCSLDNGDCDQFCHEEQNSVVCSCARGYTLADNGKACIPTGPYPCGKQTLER
T2 sequence (P00742 235-488 limits assumed): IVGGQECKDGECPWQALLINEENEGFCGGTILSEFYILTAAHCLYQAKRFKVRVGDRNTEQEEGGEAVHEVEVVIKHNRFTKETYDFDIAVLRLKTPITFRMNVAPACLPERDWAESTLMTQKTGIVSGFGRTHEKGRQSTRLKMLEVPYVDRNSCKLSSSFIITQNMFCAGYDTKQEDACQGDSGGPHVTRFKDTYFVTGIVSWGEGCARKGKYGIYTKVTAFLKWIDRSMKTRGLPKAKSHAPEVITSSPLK

[3] = biological target: T3, Plasminogen (Homo sapiens, UniProt P00747); assay: Compound was evaluated for its 50% inhibitory concentration against human protease enzyme plasmin
T3 sequence (P00747 97-580 limits assumed): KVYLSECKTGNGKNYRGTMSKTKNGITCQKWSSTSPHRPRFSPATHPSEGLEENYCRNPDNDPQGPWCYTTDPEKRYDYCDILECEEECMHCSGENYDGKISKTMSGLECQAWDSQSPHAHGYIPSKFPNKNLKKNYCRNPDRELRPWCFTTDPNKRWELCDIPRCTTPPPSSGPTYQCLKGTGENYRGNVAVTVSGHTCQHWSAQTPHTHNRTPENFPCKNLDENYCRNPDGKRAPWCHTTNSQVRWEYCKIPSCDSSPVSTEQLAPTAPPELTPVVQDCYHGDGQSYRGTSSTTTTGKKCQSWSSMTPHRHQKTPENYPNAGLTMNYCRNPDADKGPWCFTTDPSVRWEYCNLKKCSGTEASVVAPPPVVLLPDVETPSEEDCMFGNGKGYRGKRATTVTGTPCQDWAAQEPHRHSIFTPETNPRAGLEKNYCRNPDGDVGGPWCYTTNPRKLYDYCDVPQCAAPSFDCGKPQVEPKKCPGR
T3 sequence (P00747 581-810 limits assumed): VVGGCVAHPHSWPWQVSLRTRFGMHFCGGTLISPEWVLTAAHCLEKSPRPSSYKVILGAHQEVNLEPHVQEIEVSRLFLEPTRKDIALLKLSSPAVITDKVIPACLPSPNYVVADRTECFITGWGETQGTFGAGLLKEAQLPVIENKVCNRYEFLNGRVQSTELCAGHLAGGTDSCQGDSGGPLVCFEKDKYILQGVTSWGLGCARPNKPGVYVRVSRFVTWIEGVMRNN

[4] = biological target: T4, Prothrombin (Homo sapiens, UniProt P00734); assay: Compound was evaluated for its 50 percent inhibitory concentration against human thrombin factor (FIIa)
[5] = biological target: T5, Serine protease 1 (Bos taurus, UniProt P00760); assay: Compound was evaluated for its 50% inhibitory concentration against cow protease enzyme trypsin
T5 sequence (P00760 whole entry): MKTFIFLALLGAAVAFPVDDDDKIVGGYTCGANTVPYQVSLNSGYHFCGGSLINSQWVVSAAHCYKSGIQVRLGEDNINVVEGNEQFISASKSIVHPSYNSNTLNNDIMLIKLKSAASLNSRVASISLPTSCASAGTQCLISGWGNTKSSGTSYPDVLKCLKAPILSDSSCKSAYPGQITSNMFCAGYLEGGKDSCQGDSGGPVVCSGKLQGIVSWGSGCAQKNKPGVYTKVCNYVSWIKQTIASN

[6] = biological target: T2, Coagulation factor X
[7] = biological target: T3, Plasminogen
[8] = biological target: T1, Coagulation factor VII; assay: Compound was evaluated for its 50 percent inhibitory concentration against human Coagulation factor VII; inactive
[9] = biological target: T3, Plasminogen; assay: Compound was evaluated for its 50% inhibitory concentration against human protease enzyme plasmin; Inactive
[10] = biological target: Serine protease 1 (Homo sapiens, UniProt P07477); assay: Compound was evaluated for its 50% inhibitory concentration against human protease enzyme trypsin
Chain of Serine protease 1 (Homo sapiens, UniProt P07477) (P07477 whole entry): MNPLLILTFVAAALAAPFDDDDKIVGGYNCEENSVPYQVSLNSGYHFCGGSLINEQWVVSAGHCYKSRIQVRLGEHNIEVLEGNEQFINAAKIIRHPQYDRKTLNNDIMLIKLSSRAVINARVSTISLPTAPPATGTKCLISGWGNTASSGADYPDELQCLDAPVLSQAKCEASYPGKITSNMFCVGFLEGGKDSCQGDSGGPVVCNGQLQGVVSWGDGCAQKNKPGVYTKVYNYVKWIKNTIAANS

[11] = biological target: T4, Prothrombin
[12] = biological target: T1, Coagulation factor VII; assay: Compound was evaluated for its 50 percent inhibitory concentration against human Coagulation factor VII: Inactive

IC50 [1] [nM]	IC50 [2] [nM]	IC50 [3] [nM]	IC50 [4] [nM]	IC50 [5] [nM]	IC50 [6]	IC50 [7]	IC50 [8]	IC50 [9]	IC50 [10] [nM]	IC50 [11]	IC50 [12]	SMILES
706	698	2710	2.3	0.76	–	–	–	–	–	–	–	CC(C)(C)OC(=O)N[C@@H](CC(=O)O)C(=O)N1CCCC1C(=O)N[C@@H](CCCN=C(N)N)C(=O)C(=O)NCCc1ccccc1 (some centres undefined)
> 25000	–	–	22100	590	Not Active	Not Active	–	–	–	–	–	CCOC(=O)CN(NC(C)=O)C(=O)[C@@H]1CCCC[C@H]1C(=O)N[C@H](C=O)CCCN=C(N)N
–	–	–	13200	–	Not Active	–	Not Active	Not Active	22200	–	–	CCCC(CCC)C(=O)NN(CC(=O)OCC)C(=O)[C@@H]1CCCC[C@H]1C(=O)N[C@@H](CCCN=C(N)N)C(=O)C(=O)NCCc1ccccc1
22000	–	–	> 2500	250	Not Active	Not Active	–	–	–	–	–	CCOC(=O)CN(NC(=O)OC(C)(C)C)C(=O)[C@@H]1CCCC[C@H]1C(=O)N[C@H](C=O)CCCN=C(N)N
> 25000	–	–	12800	–	Not Active	Not Active	–	–	5700	–	–	CC(=O)NN(CCCc1ccccc1)C(=O)[C@@H]1CCCC[C@H]1C(=O)N[C@H](C=O)CCCN=C(N)N
8500	–	> 2500	3200	108	Not Active	–	–	–	–	–	–	CC(=O)NN(Cc1ccccc1)C(=O)[C@@H]1CCCC[C@H]1C(=O)N[C@@H](CCCN=C(N)N)C(=O)C(=O)NCCc1ccccc1
> 25000	–	–	–	> 2500	Not Active	Not Active	–	–	–	Not Active	–	CC(=O)NN(Cc1ccccc1)C(=O)[C@@H]1CCCC[C@H]1C(=O)N[C@H](C=O)CCCN=C(N)N
> 25000	–	–	> 2500	> 2500	Not Active	Not Active	–	–	–	–	–	CC(C)(C)OC(=O)NN(Cc1ccccc1)C(=O)[C@@H]1CCCC[C@H]1C(=O)N[C@H](C=O)CCCN=C(N)N
25000	–	–	> 2500	250	Not Active	Not Active	–	–	–	–	–	CCOC(=O)CN(NC(=O)OC(C)(C)C)C(=O)[C@@H]1CCCC[C@H]1C(=O)N[C@@H](CCCN=C(N)N)C(=O)C(=O)NCCc1ccccc1
18000	–	–	–	1310	Not Active	Not Active	–	–	–	Not Active	–	COC(=O)CN(NC(=O)OC(C)(C)C)C(=O)[C@@H]1CCCC[C@H]1C(=O)N[C@@H](CCCN=C(N)N)C(=O)C(=O)NCCc1ccccc1
–	–	–	880	–	Not Active	Not Active	–	–	250	–	Not Active	CC(C)(C)OC(=O)NN(Cc1ccccc1)C(=O)[C@@H]1CCCC[C@H]1C(=O)N[C@@H](CCCN=C(N)N)C(=O)C(=O)NCCc1ccccc1
4300	> 2500	> 2500	–	156	–	–	–	–	–	–	–	CC(=O)N[C@H](Cc1ccccc1)C(=O)N1CCC[C@H]1C(=O)N[C@H]1CCCN(C(=N)N)C1O (some centres undefined)
